Where two headings read alike, the source gives them in different places.
Legend:
L. guyanensis (LgyLRV1+) = assay: Drug-inhibition test: growth of LgyLRV1+ parasites; assay type: cell-based, Leishmania guyanensis; details: for Effect on L. guyanensis growth, in words: screen at 100 μM or maximum concentration permitted by solubility, 2 days; for Population doubling time: untreated ˜7.7 hours
Description: These compounds were examined for their ability to inhibit the growth of LgyLRV1^+ and virus levels by LRV1 capsid flow cytometry.
Most studies were performed using luciferase-expressing transfectants of L. guyanensis (MHOM/BR/78/M4147) described previously [LRV1^+ LgyM4147/SSU:IR2SAT-LUC(b)c3 and LRV^−LgyM4147/pX63HYG/SSU:IR2SAT-LUC(b)c4] (54); these lines are termed LgyLRV1^+ and LgyLRV1^−, respectively. Two strains of LRV1^+L. braziliensis were examined: LEM2780 (MHOM/BO/90/CS) and LEM3874 (MHOM/BO/99/IMT252 no. 3) (12). Parasites were grown in Schneider's media (Sigma Aldrich, St. Louis, Mo., USA) prepared according to the supplier's instructions with pH adjusted to 6.5 and supplemented with 0.76 mM hemin, 2 μg/mL biopterin, 50 U/mL penicillin, 50 μg/mL streptomycin, and 10% (vol/vol) heat-inactivated FBS. Cell concentrations were determined using a Coulter Counter ([…], Indianapolis, Ind., USA).
(§1) Parasites were inoculated at 2×10^5 cells/mL into Schneider's media lacking supplemental adenine.

[1] = system: LRV1 (LgyLRV1 capsid levels); assay: organism not typed; details: for Effect on LRV1 (capsid) levels, in words: screen at 100 μM or maximum concentration permitted by solubility; for Inhibition of LRV1 levels, in words: concentrations up to 100 μM, data not shown
Source text: Because LRV1 (like most Totiviridae) is not shed from the cell (33, 34), we developed a flow cytometric assay to measure intracellular LRV1 capsid levels on a per cell basis. To detect LRV1 we used binding to a rabbit anti-LgyLRV1 capsid antiserum (35) followed by detection with Alexa Fluor488-conjugated goat anti-rabbit IgG.
as §1
For capsid flow cytometry, 10^7 cells were fixed at room temperature using 2% (wt/vol) paraformaldehyde (Thermo Fisher Scientific) in PBS for 2 minutes. They were then incubated in blocking buffer [10% (vol/vol) normal goat serum (Vector Laboratories, Burlingame, Calif., USA) and 0.2% TRITON X-100 in PBS] for 30 minutes at room temperature. Anti-LgyLRV1 capsid antibody (35) was added (1:20,000 dilution) and incubated at room temperature for 1 hour. After two washes with PBS, cells were resuspended in 200 μL PBS with Alexa Fluor488-labeled goat anti-rabbit IgG (Alexafluor, Invitrogen; 1:1,000; or Thermo Fisher Scientific; 1:2,000 dilution), and incubated 1 hour at room temperature. After two additional washes with PBS, cells were subjected to flow cytometry, gating for single cells using forward and side scatter and the data analyzed using […] software (BD Bioscience, San Jose, Calif., USA).

[2] = LgyLRV1+, tested at 100 μM, growth after 2 days
[3] = LgyLRV1+, tested at 100 μM, 2 days
[4] = Leishmania guyanensis, 48 h, LgyLRV1+, tested at 100 μM, growth after 2 days, read-out: Percent control (density)
[5] = 48 h, read-out: Percent control (LRV1 capsid)
[6] = LgyLRV1+, tested at 50 μM, growth after 2 days
[7] = LgyLRV1+, tested at 50 μM, 2 days

| Compound | Density (cells/mL) (L. guyanensis (LgyLRV1+); [2]) | LRV1 capsid (geometric mean FU) [1, 3] [FU] | activity at 100 µM (L. guyanensis (LgyLRV1+); [4]) [%] | activity at 100 µM [1, 5] [%] | other results |
| --- | --- | --- | --- | --- | --- |
| 3′-Azido-3′-hydroxyethyl cyclobutyl adenine [Compound E8] | 1.86E+7 | 277 | – | – | Percent control (density) (L. guyanensis (LgyLRV1+); [2]): 111 Percent control; Percent control (LRV1 capsid) [1, 3]: 104 Percent control |
| 3′-Azido-3′-hydroxyethyl cyclobutyl adenine [Compound E9] | 1.58E+7 | 279 | – | – | Percent control (density) (L. guyanensis (LgyLRV1+); [2]): 94 Percent control; Percent control (LRV1 capsid) [1, 3]: 105 Percent control |
| 3′-Hydroxyethyl cyclobutyl adenine | 1.82E+7 | 290 | – | – | Percent control (density) (L. guyanensis (LgyLRV1+); [2]): 108 Percent control; Percent control (LRV1 capsid) [1, 3]: 109 Percent control |
| Nc1ncnc2c1ncn2[C@@H]1O[C@H](CO)[C@@H](O)[C@H]1F [2′-Fluoro-2′-deoxyadenosine] | 2.07E+7 | 257 | 123 | 97 | – |
| Nc1ccn([C@@H]2O[C@H](CO)[C@@H](O)[C@H]2F)c(=O)n1 [2′-Fluoro-2′-deoxycytidine] | 2.21E+7 | 230 | 132 | 87 | – |
| OC[C@H]1O[C@@H](n2cnc3c(O)ncnc32)[C@H](F)[C@@H]1O [2′-Fluoro-2′-deoxyinosine] | 2.41E+7 | 255 | 143 | 96 | – |
| Nc1nc2c(ncn2[C@@H]2O[C@H](CO)[C@@H](O)[C@H]2F)c(=O)[nH]1 [2′-fluoro-2′-deoxyguanosine, 2′-Fluoro-2′-deoxyguanosine] | 1.68E+7 | 326 | 100 | 123 | – |
| O=c1ccn([C@@H]2O[C@H](CO)[C@@H](O)[C@H]2F)c(=O)[nH]1 [2′-fluoro-2′-deoxyuridine, 2′-Fluoro-2′-deoxyuridine] | 2.22E+7 | 234 | 132 | 88 | – |
| C[C@@]1(O)[C@H](O)[C@@H](CO)O[C@H]1n1cnc2c(=O)[nH]c(N)nc21 [2′C-Methyguanosine, 2′C-Methyl guanosine] | 2.25E+7 | 252 | – | – | Percent control (density) (L. guyanensis (LgyLRV1+); [2]): 133 Percent control; Effect on L. guyanensis growth, in words (L. guyanensis (LgyLRV1+)): little effect; Percent control (LRV1 capsid) [1, 3]: 95 Percent control; Effect on LRV1 (capsid) levels, in words ([1]; 2 days): little effect |
| C[C@@]1(O)[C@H](O)[C@@H](CO)O[C@H]1n1ccc(N)nc1=O [2′C-Methylcytidine, 2′C-Methyl cytidine] | 1.73E+7 | 162 | – | – | Percent control (density) (L. guyanensis (LgyLRV1+); [2]): 103 Percent control; Effect on L. guyanensis growth, in words (L. guyanensis (LgyLRV1+)): little effect; Percent control (LRV1 capsid) [1, 3]: 61 Percent control; Effect on LRV1 (capsid) levels, in words ([1]; 2 days): little effect |
| C[C@H]1O[C@@H](n2cc(F)c(=O)[nH]c2=O)[C@H](O)[C@@H]1O [5-Fluoro-5′-deoxyuridine] | 4.71E+6 | 234 | 28 | 88 | – |
| O=c1[nH]cc(F)c(=O)[nH]1 [5-Fluorouracil] | 9.05E+5 | – | 5 | 193 | LRV1 capsid (geometric mean FU) [1]: 512 FU |
| O=c1[nH]cnc2nn[nH]c12 [8-Azahypoxanthine] | 1.29E+7 | 251 | 77 | 95 | – |
| Nc1nc2c(ncn2COCCO)c(=O)[nH]1 [Acyclovir] | – | – | – | – | activity at 120 µM (L. guyanensis (LgyLRV1+); Leishmania guyanensis, 48 h, LgyLRV1+, tested at 120 μM, growth after 2 days, read-out: Percent control (density)): 51%; Density (cells/mL) (L. guyanensis (LgyLRV1+); LgyLRV1+, tested at 120 μM, growth after 2 days): 8.55E+6 cells/mL; activity at 120 µM [1, 5]: 259% |
| Oc1ncnc2[nH]ncc12 [Allopurinol] | 4.06E+5 | 90 | 2 | 34 | Inhibition of L. guyanensis growth (L. guyanensis (LgyLRV1+); highest concentration tested, 48-hour propagation, growth rate (FIG. 18A)): 30%; Inhibition of LRV1 capsid levels ([1]; highest concentration tested, 48-hour propagation (FIG. 18A)): 60% |
| CCCNC(=O)[C@H]1O[C@@H]1C(=O)N[C@H](C(=O)N1CCC[C@H]1C(=O)OC)[C@@H](C)CC [CA-074-Me, CA-074 Me] | – | – | – | – | Density (cells/mL) (L. guyanensis (LgyLRV1+); [6]): 1.00E+07 cells/mL; Percent control (density) (L. guyanensis (LgyLRV1+); [6]): 60 Percent control; Effect on L. guyanensis growth, in words (L. guyanensis (LgyLRV1+)): no effects; LRV1 capsid (geometric mean FU) [1, 7]: 83 FU; Percent control (LRV1 capsid) [1, 7]: 31 Percent control; Effect on LRV1 (capsid) levels, in words ([1]; 2 days): only minimal effects |
| C[C@@H]1C[C@@H]([C@H](O)CC2CC(=O)NC(=O)C2)C(=O)[C@@H](C)C1 [CHX, cycloheximide] | – | – | – | – | Population doubling time (L. guyanensis (LgyLRV1+); L. guyanensis at 10 nM): 11.2 h; Population doubling time (L. guyanensis (LgyLRV1+); L. guyanensis at 100 nM): 44.7 h; LRV1 capsid levels under growth-inhibiting agent, in words ([1]; LgyLRV1+, 48-hour propagation in increasing concentrations): unaffected |
| CCCC(=O)O[C@H]1CN2CC[C@H](O)[C@@H]2[C@@H](O)[C@@H]1O [Celgosivir, 6-O-butanoyl castanospermine] | – | – | – | – | activity at 10 µM (L. guyanensis (LgyLRV1+); Leishmania guyanensis, 48 h, LgyLRV1+, tested at 10 μM, growth after 2 days, read-out: Percent control (density)): 65%; Density (cells/mL) (L. guyanensis (LgyLRV1+); LgyLRV1+, tested at 10 μM, growth after 2 days): 1.09E+7 cells/mL; activity at 10 µM [1, 5]: 47%; LRV1 capsid (geometric mean FU) ([1]; LgyLRV1+, tested at 10 μM, 2 days): 124 FU |
| Nc1ncnc2c(CN3C[C@H](CO)[C@@H](O)C3)c[nH]c12 [DADMe-Immucillin A] | – | – | – | – | Inhibition of LRV1 levels, in words [1]: no inhibition of LRV1 levels |
| O=c1[nH]cnc2c(CN3C[C@H](CO)[C@@H](O)C3)c[nH]c12 [DADMe-Immucillin H] | – | – | – | – | Inhibition of LRV1 levels, in words [1]: no inhibition of LRV1 levels |
| Nc1ncnc2c(C3N[C@H](CO)[C@@H](O)[C@H]3O)c[nH]c12 (stereo partly shown) [Immucillin A] | – | – | – | – | Inhibition of LRV1 levels, in words [1]: no inhibition of LRV1 levels |
| O=c1[nH]cnc2c([C@@H]3N[C@H](CO)[C@@H](O)[C@H]3O)c[nH]c12 [Immucillin H] | – | – | – | – | Inhibition of LRV1 levels, in words [1]: no inhibition of LRV1 levels |
| Nc1ccn([C@@H]2CS[C@H](CO)O2)c(=O)n1 [Lamivudine] | 9.20E+6 | – | 55 | – | – |
| Nc1ncnc2nc[nH]c12 [adenine] | – | – | – | – | Effect of exogenous adenine on LRV1 levels, in words ([1]; adenine up to 400 μM, LgyLRV1+): nor did it alter LRV1 levels |
